Entries after “also recorded” stand apart in the source; their conditions may differ.
Experiments:
[1] = available chlorine over one hour in mixtures of a chelator and a sodium hypochlorite solution, titration with sodium thiosulfate (FIGS. 2 and 3); type: physicochemical; details: for loss of available hypochlorite anions: admixture into sodium hypochlorite solution
From the text: To measure the amount of hypochlorite, it has to be transferred by acidification to chlorine, which oxidizes potassium iodide to iodine. The latter is then titrated with a sodium thiosulfate solution.
In particular, the chlorine reduction from a 9 weight percentage and 18 weight percentage of Na4HEDP with reference to the total weight of the sodium hypochlorite solution as well as the chlorine reduction from a 3 weight percentage and 18 weight percentage of Na4EDTA with reference to the total weight of the sodium hypochlorite solution, respectively, was monitored over one hour, which is the normal duration of an endodontic treatment. The Na4HEDP and the Na4EDTA were each dissolved in a sodium hypochlorite solution comprising 1 weight percentage of sodium hypochlorite with reference to the total weight of the sodium hypochlorite solution.
The amount of chlorine over time was compared with a control solution of 1 weight percentage of pure sodium hypochlorite. In order to determine the amount of the available chlorine, aliquots of each solution (approximately 0.5 grams) were removed after 1 minute, 10 minutes, 20 minutes, 30 minutes and 60 minutes and assessed for their amount of available chlorine using a titration apparatus. Thereby, a 0.1 molar sodium thiosulfate solution was used as titrator.
In FIG. 3, the same measurements are performed using the same amounts of Na4HEDP and Na4EDTA as in FIG. 2, whereby these chelators are each admixed into a NaOCl solution comprising 5 weight percentage of NaOCl.

[2] = evolution of the pH-value of calcium hydroxide with Na4HEDP in distilled water (FIG. 4); type: physicochemical; details: 1 gram calcium hydroxide and 0.1 gram Na4HEDP in 10 milliliter distilled water, 10 minutes
Description: FIG. 4 depicts the evolution of the pH-value over time determined for the admixture of Na4HEDP and calcium hydroxide in solid form and only calcium hydroxide in solid form, respectively, into distilled water. The solutions are prepared by mixing 1 gram of calcium hydroxide in solid form and 0.1 gram of Na4HEDP in a glass vial. 10 milliliter of distilled water was added, and the pH measurement was started immediately and continued for 10 minutes. As a control, the pH value of 1 gram pure calcium hydroxide dissolved in 10 milliliter of distilled water was recorded, too. […] Consequently, the addition of Na4HEDP to calcium hydroxide can trigger an earlier onset of the desired disinfecting effect. In addition, the binding capacity of Na4HEDP to Ca^2+ makes it easier to remove the calcium hydroxide slurry from the root canal system before the canal is filled with an alloplastic material.

[3] = 18 weight percentage chelator in 1 weight percentage NaOCl solution, after one hour
[4] = 18 weight percentage chelator in 1 weight percentage NaOCl solution, at the start

Row | SMILES | relative amount of chlorine compared to pure NaOCl control ([1]; 3 weight percentage chelator in 1 weight percentage NaOCl solution, after one hour) | relative amount of chlorine compared to pure NaOCl control ([1]; 3 weight percentage chelator in 1 weight percentage NaOCl solution, at the start) | relative amount of chlorine compared to pure NaOCl control [1, 3] | relative amount of chlorine compared to pure NaOCl control [1, 4] | loss of available hypochlorite anions ([1]; over the course of one hour) | amount of chlorine ([1]; chelator in 5 weight percentage NaOCl solution, after one hour) | relative amount of chlorine compared to pure NaOCl control ([1]; 9 weight percentage chelator in 1 weight percentage NaOCl solution, after one hour) | relative amount of chlorine compared to pure NaOCl control ([1]; 9 weight percentage chelator in 1 weight percentage NaOCl solution, at the start) | drop of the amount of chlorine ([1]; chelator in 5 weight percentage NaOCl solution, over the course of one hour) | pH value of the slurry compared to calcium hydroxide alone [2]
1 | O=C([O-])CN(CCN(CC(=O)[O-])CC(=O)[O-])CC(=O)[O-].[Na+].[Na+].[Na+].[Na+] [Na4EDTA, reference compound] | below 25 weight percentage | about 95 weight percentage | below 25 weight percentage | about 75 weight percentage | pronounced loss | zero | – | – | – | –
2 | CC(O)(P(=O)([O-])[O-])P(=O)([O-])[O-].[Na+].[Na+].[Na+].[Na+] [Na4HEDP, tetrasodium (1-hydroxyethane)-1,1′-di-phosphonate] | – | – | about 75 weight percentage | ~100 percentage | no significant loss; also recorded: does not cause any significant loss | – | about 90 weight percentage | ~100 percentage | less than 25 percentage | higher pH value which increases faster
